US12404268B2, “2-heteroaryl aminoquinazolinone derivative” (Sumitomo Pharma Co., Ltd., priority 2020, dated 2025)

Tests used:
[1] = test system: neurons induced to differentiate from SCN1A gene deficient human iPS cells; assay: Test for measuring hyperexcitation suppression activity (spontaneous calcium oscillation frequency); type: cell-based; details: Neuron; for IC50: SCN1A gene deficient human iPS cell-derived neurons, FLIPR Calcium 6, FDSS7000EX, read-out: IC50 (50% inhibitory concentration, frequency of spontaneous calcium oscillation)
Method in brief: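 SCN1A-deficient iPS-derived neurons used from day 60 of differentiation, loaded 30 min with Calcium 6 probe. Compounds at final 0.1–100 μM; spontaneous calcium oscillation frequency recorded on FDSS7000EX, with the last 2 of 8 min post-addition expressed relative to the 2 min baseline.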

[2] = test system: SCN1A loss-of-function genetic mutation mice (epileptic spike); assay: Evaluation of epileptic spike using SCN1A-mutated animal; type: in vivo, mouse; details: F1 SCN1A-mutated mice; spike frequency over 3 hours before and after administration
Protocol: Evaluation of Epileptic Spike Using SCN1A-Mutated Animal
This test evaluates the inhibitory effect of a medicament on epileptic spike expressed with an SCN1A loss-of-function genetic mutation.
Febrile seizure was induced in the SCN1A-mutated mice (6 to 10 week old) described above from increasing the body temperature by placing and continuously incubating the mice in a plastic chamber whose internal temperature was increased by incubation using a warm bath of about 43° C. After two weeks from inducing febrile seizure, a head mount (cat #8201-SS, Pinnacle Technology) was mounted on the head of the mice. Two weeks after mounting the head mount, the F1 SCN1A loss-of-function genetic mutation mice (25 to 32 g) were connected to a seizure EEG recording system (Pinnacle Technology), and the test compound was administered. The epileptic spike frequency over 3 hours before and after administration of the compound was measured, and the dose at which epileptic spike frequency is suppressed to 50% after the administration (ED50) was calculated.

[3] = test system: male Slc:ddY mice (pentetrazol-induced clonic seizure); assay: Model subcutaneously injected with pentetrazol (minimum seizure model, scPTZ); type: in vivo, mouse; details: 85 mg/kg pentetrazol s.c. 1 hour after oral dosing, observed 30 minutes
Protocol: Evaluation of Model Subcutaneously Injected with Pentetrazol (Minimum Seizure Model, scPTZ)
This test evaluates the antiseizure effect of a medicament. The animal model used in this test is a phenotype of generalized absence seizure or myoclonic seizure. The test compound was orally administered to male Slc:ddY mice (group of five, body weight: 20 to 30 g), and 85 mg of pentetrazol/kg was subcutaneously administered 1 hour later. The presence/absence of expression of clonic seizure during 30 minutes was then observed. The dose at which […] (ED50) was calculated. 0.5% methylcellulose solution was administered for the control.

[4] = test system: male Slc:ddY mice (electroshock-induced tonic extensor seizure); assay: Maximal electroshock seizure (MES) model; type: in vivo, mouse; details: corneal stimulation 60 Hz, 50 mA, 0.2 seconds 1 hour after oral dosing
Protocol: Evaluation of Maximal Electroshock Seizure (MES) Model
This test evaluates the antiseizure effect of a medicament in the same manner as Test Example 3. The animal model used in this test is a phenotype of generalized tonic-clonic seizure and secondary generalized partial seizure. The test compound was orally administered to male Slc:ddY mice (group of five, body weight: 20 to 30 g), and electrical stimulation (60 Hz, 50 mA, 0.2 seconds) was applied through the cornea 1 hour later. Suppression of induced expression of tonic extensor seizure of the rear limb was observed. The dose at which […] (ED50) was calculated. 0.5% methylcellulose solution was administered for the control.

male Slc:ddy mice = assay: Rotarod evaluation (motor coordination); type: in vivo, mouse; details: rotarod 15 rpm, 50 minutes after oral dosing, 180 seconds
Protocol: The test evaluates the effect of suppressing the ability of motor coordination of a medicament. Male Slc:ddy mice (body weight: 20 to 30 g) were trained to walk for 5 minutes with a rotarod apparatus (apparatus for rotating a cylindrical bar with a 4 cm diameter, 12 rpm) on the day of the test. A test compound was orally administered to a group of 5 mice. […] Animals that fell off within 180 seconds due to incoordination were counted. […] 0.5% methylcellulose solution was administered for the control.

[5] = Homo sapiens, read-out: inhibition rate

Row | SMILES | IC50 [1] | ED50 (dose at which epileptic spike frequency is suppressed to 50%) [2] | ED50 (clonic seizure) [3] | ED50 (tonic extensor seizure) [4] | TD50 (dosage at which 50% of animals fall off) (male Slc:ddy mice) | inhibition at 1 µM [1, 5] | inhibition at 0.1 µM [1, 5] | inhibition at 10 µM ([1]; Homo sapiens, @10 μM, read-out: inhibition rate)
1 | O=c1c2cc(F)ccc2nc(Nc2cccnc2)n1-c1ccccc1 [Example 12, 6-fluoro-3-phenyl-2-(pyridin-3-ylamino)quinazolin-4(3H)-one] | 0.2 µM | 0.18 mg/kg, p.o. | 0.25 mg/kg, p.o. | 0.56 mg/kg, p.o. | 1.8 mg/kg, p.o. | – | – | –
2 | O=c1c2cc(F)ccc2nc(Nc2cncc(F)c2)n1-c1ccccc1 [Example 40, 6-fluoro-2-((5-fluoropyridin-3-yl)amino)-3-phenylquinazolin-4(3H)-one] | – | 0.12 mg/kg, p.o. | 0.27 mg/kg, p.o. | 0.56 mg/kg, p.o. | 1.8 mg/kg, p.o. | 100% | – | –
3 | O=c1c2ccccc2nc(Nc2cccnc2)n1-c1ccccc1 [Example 14, 3-phenyl-2-(pyridin-3-ylamino)quinazolin-4(3H)-one] | 1.8 µM | 5.83 mg/kg, p.o. | 4.17 mg/kg, p.o. | – | 7.38 mg/kg, p.o. | – | – | –
4 | Cc1ccccc1-n1c(Nc2cccnc2)nc2ccc(C#N)cc2c1=O [Example 109, 4-oxo-2-(pyridin-3-ylamino)-3-(o-tolyl)-3,4-dihydroquinazoline-6-carbonitrile] | – | 0.19 mg/kg, p.o. | 0.25 mg/kg, p.o. | – | 2.0 mg/kg, p.o. | – | 59% | –
5 | N#Cc1ccc2nc(Nc3cccnc3)n(-c3ccccc3)c(=O)c2c1 [Example 3, 4-oxo-3-phenyl-2-(pyridin-3-ylamino)-3,4-dihydroquinazoline-6-carbonitrile] | – | 0.66 mg/kg, p.o. | 0.74 mg/kg, p.o. | – | 2.0 mg/kg, p.o. | 97% | – | –
6 | Cc1ccccc1-n1c(Nc2cncc(F)c2)nc2ccc(C#N)cc2c1=O [Example 114, 2-((5-fluoropyridin-3-yl)amino)-4-oxo-3-(o-tolyl)-3,4-dihydroquinazoline-6-carbonitrile] | – | 0.044 mg/kg, p.o. | 0.065 mg/kg, p.o. | – | 0.2 mg/kg, p.o. | – | 55% | –
7 | O=c1c2cc(F)cc(F)c2nc(Nc2cccnc2)n1-c1ccccc1 [Example 32, 6,8-difluoro-3-phenyl-2-(pyridin-3-ylamino)quinazolin-4(3H)-one] | – | 1.48 mg/kg, p.o. | 4.17 mg/kg, p.o. | – | 8.83 mg/kg, p.o. | 80% | – | –
8 | CN1CCC(n2c(Nc3cccnc3)nc3ccccc3c2=O)CC1 [Example 78] | – | – | – | – | – | – | – | 100%
